This assay concerns the target T1, Recombinant human Protein-tyrosine phosphatase1B (PTP1B) (Homo sapiens, UniProt P18031).
T1 construct: Recombinant human Protein-tyrosine phosphatase1B (PTP1B) (amino acid 1-322 Biomol, USA); purchased Biomol, USA
T1 sequence (P18031 1-322): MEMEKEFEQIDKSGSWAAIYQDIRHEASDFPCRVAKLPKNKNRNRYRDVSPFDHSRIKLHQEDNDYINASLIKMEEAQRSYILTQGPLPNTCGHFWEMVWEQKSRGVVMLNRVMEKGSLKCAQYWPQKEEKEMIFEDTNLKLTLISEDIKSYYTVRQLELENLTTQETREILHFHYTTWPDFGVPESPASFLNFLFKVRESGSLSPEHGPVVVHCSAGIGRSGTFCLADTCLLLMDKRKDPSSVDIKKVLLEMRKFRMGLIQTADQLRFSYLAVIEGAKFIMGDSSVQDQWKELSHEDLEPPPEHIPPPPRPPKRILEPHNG
In words: PTP1B enzyme inhibition assay (pNpp substrate). Format: biochemical. To be noted: inhibition of recombinant human PTP1B, pNpp 5 mM, 30 mins at 25° C; inhibitor concentration not given. As to the method:
Protein tyrosine phosphatase 1B (PTP1B) is an intracellular enzyme which functions by removing the phosphate groups from phosphorylated tyrosine residues of cellular proteins. PTP1B has been implicated as a negative regulator of insulin action and therefore is of therapeutic interest. The ability of the test compounds to inhibit the activity of PTP1B is determined using an enzyme inhibition assay.
The assay is performed using two independent substrates of PTP1B namely, p-nitrophenyl phosphate (pNpp) and the phosphorylated Epidermal growth factor receptor peptide (EGFR).
In the assay performed with pNpp, the action of PTP1B results in the release of p-nitrophenol, which is yellow in colour and can be measured at 410 nm. In the case of the assay using EGFR, action of PTP1B results in the release of free phosphate group. This is trapped using a reagent containing ammonium molybdate and malachite green resulting in a colored complex whose absorbance can be measured at 620 nm.
1× Assay buffer 50 mM HEPES (pH 7.4) • 1 mM EDTA • 1 mM DTT • 0.05% Igepal® CA-630
Dilute recombinant Human PTP1B 1:150 in 1× Assay buffer for 10× stock,
Prepare 10× stock of pNpp (50 mM) in 1× Assay buffer
Prepare 100× stock in 100% DMSO, dilute 1:10 with 1× Assay buffer to get 10× stock in 10% DMSO.
PTP1B inhibition assay was performed using recombinant human PTP1B. PTP1B (0.016 μg/well) was incubated in a buffer containing 50 mM HEPES, 1 mM DTT, 1 mM EDTA and 0.05% Igepal® CA-630 with or without inhibitor (10× stock, final DMSO concentration is 1%) for 30 mins at 25° C. This was followed by addition of p-Nitrophenyl phosphate (pNpp) substrate (5 mM). The final volume of the reaction mixture is 50 μL and experiment was done in 96 well half area plate. The incubation was continued for 30 mins at 25° C. The conversion of pNpp to p-Nitrophenol (pNp) was measured at 410 nm in Spectramaxplus Spectrophotometer (Molecular Devices, USA).

Where a name gives a salt, the structure may show the parent alone.

The results in this text go back to patent US20090088432A1, “Thiazolinones and Oxazolinones and their Use as Ptp1b Inhibitors” (priority 2005, published 2009).

In the case of `O=C(O)Cc1ccc(NC2=NC(=O)C(=Cc3ccc(C(=O)N4CCOCC4)cc3)S2)cc1` [Compound 36, (4-{5-[4-(Morpholine-4-carbonyl)-benzylidene]-4-oxo-4,5-dihydro-thiazol-2-ylamino}-phenyl)-acetic acid], the “Activity Score” value was “(+) (+ = 10-20% inhibition)”. The result for `O=C([O-])CCc1ccc(NC2=NC(=O)C(=Cc3cc4ccccc4cc3OCc3ccccc3)S2)cc1.[Na+]` [Compound 96, 3-{4-[5-(3-Benzyloxy-naphthalen-2-ylmethylene)-4-oxo-4,5-dihydro-thiazol-2-lamino]-phenyl}-sodium propionate] reads “(+++) (+++ = >50% inhibition)”. The result for `O=C(O)Cc1ccc(NC2=NC(=O)C(=Cc3ccc4[nH]ccc4c3)S2)cc1` [Compound 170, {4-[5-(H-Indol-5-ylmethylene)-4-oxo-4,5-dihydro-thiazol-2-ylamino]-phenyl}-acetic acid] reads “(+++) (+++ = >50% inhibition)”; that for `COc1ccc2cc(C=C3SC(Nc4ccc(CC(=O)O)cc4)=NC3=O)ccc2c1` [Compound 7, {4-[5-(6-Methoxy-naphthalen-2-ylmethylene)-4-oxo-4,5-dihydro-thiazol-2-ylamino]-phenyl}-acetic acid], “(+++) (+++ = >50% inhibition)”.

Turning to `CS(=O)(=O)NC(=O)Cc1ccc(NC2=NC(=O)C(=Cc3ccc(-c4ccccc4)cc3)S2)cc1.[Na]` [Compound 225, N-{2-[4-(5-Biphenyl-4-ylmethylene-4-oxo-4,5-dihydro-thiazol-2-ylamino)-phenyl]-acetyl}-methanesulfonamide, sodium salt], the “Activity Score” value is given as “(+) (+ = 10-20% inhibition)”. As for `N#Cc1ccc(-c2ccc(C=C3SC(Nc4ccc(CC(=O)O)cc4)=NC3=O)cc2)cc1` [Compound 243, {4-[5-(4′-Cyano-biphenyl-4-ylmethylene)-4-oxo-4,5-dihydro-thiazol-2-ylamino]-phenyl}-acetic acid], the entry is “(+++) (+++ = >50% inhibition)”; as for `O=C(O)Cc1cccc(NC2=NC(=O)C(=Cc3ccc4ccccc4c3)S2)c1` [Compound 16, [3-(5-Naphthalen-2-ylmethylene-4-oxo-4,5-dihydro-thiazol-2-ylamino)-phenyl]-acetic acid], “(+) (+ = 10-20% inhibition)”. As for `COc1ccc(S(=O)(=O)NC(=O)Cc2ccc(NC3=NC(=O)C(=Cc4ccc(-c5ccccc5)cc4)S3)cc2)cc1.[Na]` [Compound 226, N-{2-[4-(5-Biphenyl-4-ylmethylene-4-oxo-4,5-dihydro-thiazol-2-ylamino)-phenyl]-acetyl}-4-methoxy-benzenesulfonamide, sodium salt], the entry is “(+++) (+++ = >50% inhibition)”. As for `Cc1ccc(S(=O)(=O)NC(=O)Cc2ccc(NC3=NC(=O)C(=Cc4ccc(-c5ccc(F)cc5)cc4)S3)cc2)cc1` [Compound 215, N-(2-{4-[5-(4′-Fluoro-biphenyl-4-ylmethylene)-4-oxo-4,5-dihydro-thiazol-2-ylamino]-phenyl}-acetyl)-4-methyl-benzenesulfonamide sodium salt], the entry is “(+++) (+++ = >50% inhibition)”.

As to `O=C(O)Cc1ccc(NC2=NC(=O)C(=Cc3ccc(C(F)(F)F)cc3)S2)cc1` [Compound 72, {4-[4-Oxo-5-(4-trifluoro methyl-benzylidene)-4,5-dihydro-thiazol-2-ylamino]-phenyl}-acetic acid], the “Activity Score” value is on record as “(+) (+ = 10-20% inhibition)”. The result for `Cc1ccc(S(=O)(=O)NC(=O)Cc2ccc(NC3=NC(=O)C(=Cc4ccc5c(c4)OCCO5)S3)cc2)cc1` [Compound 125, N-(2-{4-[5-(2,3-Dihydro-benzo[1,4]dioxin-6-ylmethylene)-4-oxo-4,5-dihydro-thiazol-2-ylamino]-phenyl}-acetyl)-4-methyl-benzenesulfonamide] reads “(+++) (+++ = >50% inhibition)”; that for “{3-[5-(1-Carbamoylmethyl-1H-indol-3-ylmethylene)-4-oxo-4,5-dihydro-thiazol-2-ylamino]-phenyl}-acetic acid [Compound 23]”, “(+++) (+++ = >50% inhibition)”.
